Data taken from PubChem BioAssay AID1963436 (Molecular Pharmacology Branch, DTP, NCI, 2024).

Test system: OVCAR-5 complex spheroid (HUVEC/MSC), viability % T/C
Assay: Anticancer human tumor OVCAR-5 cell line growth inhibition [Asc];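 also: spheroids exposed to agents for 7 days before readout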;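 as to viability, T/C: 100% = DMSO vehicle-treated wells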
Details: for IC50: curve of first compound; for viability, T/C: stronger effect = lower value
Experimental: Multicellular complex tumor spheroid response to apoptosis pathway targeting inhibitors Alrizomadlin, Pelcitoclax, and Dasminapant in combination with a variety of drugs and investigational agents in selected tumor cell lines
The MDM2 inhibitor alrizomadlin, the Bcl-2/Bcl-xL inhibitor pelcitoclax, and the IAPs inhibitor dasminapant were evaluated both individually and in combination with standard of care and investigational anticancer small molecules within a complex spheroid model of solid tumors. . Complex spheroids include a stromal component modeled by human endothelial cells (HUVEC) and fibroblasts modeled by human mesenchymal stem cells (MSCs). The concentration ranges selected for each drug and investigational agent were based upon clinically achievable concentrations if the clinical Cmax of the agent was known.
Compounds. The drugs and investigational agents: alrizomadlin (APG-115; NSC831270), pelcitoclax (APG-1252; NSC835773), dasminapant (APG-1387;NSC834197), TAK-243 (NSC785004), copanlisib (NSC809693), olaparib (NSC753686), talazoparib (NSC767125), cobimetinib (NSC 768068), eltanexor (KPT-8602, NSC 794443), abemaciclib (NSC 768073), sotorasib (NSC818433), adagrasib (NSC 831453), MRTX-1133 (NSC 836407), Iadademestat (ORY1001, NSC 806812), and RMC-4630 (NSC839698), were obtained from the NCI Developmental Therapeutics Program Chemical Repository. The FDA-approved anticancer drug set is available from the Developmental Therapeutics Program at https://dtp.cancer.gov/organization/dscb/obtaining/available plates.htm. […] The stock solutions were prepared in dimethyl sulfoxide (DMSO, Sigma-Aldrich, St. Louis, MO, cat. D2650) at 800-fold the tested concentration and stored at -70 degrees C prior to their use. All drugs and investigational agents were tested over a range starting from a high concentration at or near the clinical Cmax and decreasing in half-log increments. If the clinical Cmax for an agent had not been determined, the highest concentration tested was 10 microM.
The patient-derived cancer (PDC) cell lines include five colon adenocarcinomas: 186277-243-T-J2-PDC, 616215-338-R-J1-PDC, 439559-082-T-J2-PDC, 463943-066-T-J2-PDC, and 519858-162-T-J1-PDC; three pancreatic carcinomas: 323965-272-R-J2-PDC, 521955-158-R6-J3-PDC, and 521955-158-R2-J5-PDC; two uterine sarcomas: 327498-152-R-J2-PDC and 993429-296-R-J1-PDC; two rhabdomyosarcomas: 755483-174-R-J1-PDC and 772245-204-R-J1-PDC; two soft tissue sarcomas: 126254-015-R-J1-PDC and 494315-158-R-J1-PDC; two malignant fibrous histiocytomas: 317291-083-R-J1-PDC and 596521-263-R-J1-PDC; two breast carcinomas: 171881-019-R-J1-PDC and 885512-296-R-J2-PDC; and one ovarian carcinoma: 6556581-035-R-J-PDC were obtained from the NCI PDMR, (https://pdmr.cancer.gov). The established cell lines HSSY-2 synovial sarcoma (RRID:CVCL 8719), SYO-1 synovial sarcoma (RRID:CVCL_7146), MPNST malignant peripheral neural sheath tumor were obtained from the Sloan Kettering Institute. The following established cell lines were purchased from the American Type Culture Collection (ATCC, Manassas, VA), Sor the received from the NCI repository:, PANC-1 pancreatic carcinoma (CRL-1469, RRID:CVCL_0480), OVCAR-5 ovarian carcinoma (RRID:CVCL_1628), OVCAR-8 ovarian carcinoma (RRID:CVCL_1629), , MCF-7 breast carcinoma (CRL-12584, RRID:CVCL_0031), MDA-MB-231 breast carcinoma (CRL-12532, RRID:CVCL_0062), NCI-H1876 small cell lung carcinoma (CRL-5902, RRID:CVCL_1503), NCI-H510A small cell lung carcinoma (HTB-184, RRID:CVCL_1565), NCI-H1417 (CRL-5869, RRID:CVCL_1469), and NCI-H196 small cell lung carcinoma (CRL-5823, RRID:CVCL_1509). Dr. Peter Houghton (Greehey Children's Cancer Research Institute, University of Texas Health Science Center, San Antonio, TX) provided Rh-18 rhabdomyosarcoma (RRID:CVCL_1659). Pooled donor human umbilical vein endothelial cells (HUVEC, Lonza, cat. CC-2519) and human mesenchymal stem cells (hMSC, Lonza, cat. PT-2501) were purchased from Lonza (Walkersville, MD).
Cell Culture. […]

[1] = second compound 0.03 µM, first compound 0.00316 µM
[2] = second compound 0.03 µM, first compound 0.01 µM
[3] = second compound 0.03 µM, first compound 0.0316 µM
[4] = second compound 0.03 µM, first compound 0.1 µM
[5] = second compound 0.03 µM, first compound 0.316 µM
[6] = second compound 0.03 µM, first compound 1 µM
[7] = second compound 0.0949 µM, first compound 0.00316 µM
[8] = second compound 0.0949 µM, first compound 0.01 µM
[9] = second compound 0.0949 µM, first compound 0.0316 µM
[10] = second compound 0.0949 µM, first compound 0.1 µM
[11] = second compound 0.0949 µM, first compound 0.316 µM
[12] = second compound 0.0949 µM, first compound 1 µM
[13] = second compound 0.3 µM, first compound 0.00316 µM
[14] = second compound 0.3 µM, first compound 0.01 µM
[15] = second compound 0.3 µM, first compound 0.0316 µM
[16] = second compound 0.3 µM, first compound 0.1 µM
[17] = second compound 0.3 µM, first compound 0.316 µM
[18] = second compound 0.3 µM, first compound 1 µM
[19] = second compound 0.949 µM, first compound 0.00316 µM
[20] = second compound 0.949 µM, first compound 0.01 µM
[21] = second compound 0.949 µM, first compound 0.0316 µM
[22] = second compound 0.949 µM, first compound 0.1 µM
[23] = second compound 0.949 µM, first compound 0.316 µM
[24] = second compound 0.949 µM, first compound 1 µM
[25] = second compound 3 µM, first compound 0.00316 µM
[26] = second compound 3 µM, first compound 0.01 µM
[27] = second compound 3 µM, first compound 0.0316 µM
[28] = second compound 3 µM, first compound 0.1 µM
[29] = second compound 3 µM, first compound 0.316 µM
[30] = second compound 3 µM, first compound 1 µM

SMILES	IC50 (second compound 0.03 µM) [nM]	IC50 (second compound 0.0949 µM) [nM]	IC50 (second compound 0.3 µM) [nM]	IC50 (second compound 0.949 µM) [nM]	IC50 (second compound 3 µM) [nM]	viability, T/C [1] [%]	viability, T/C [2] [%]	viability, T/C [3] [%]	viability, T/C [4] [%]	viability, T/C [5] [%]	viability, T/C [6] [%]	viability, T/C [7] [%]	viability, T/C [8] [%]	viability, T/C [9] [%]	viability, T/C [10] [%]	viability, T/C [11] [%]	viability, T/C [12] [%]	viability, T/C [13] [%]	viability, T/C [14] [%]	viability, T/C [15] [%]	further results
CCN1CCN(Cc2ccc(Nc3ncc(F)c(-c4cc(F)c5nc(C)n(C(C)C)c5c4)n3)nc2)CC1 + CCN1C(C(=O)NC23CCC(C(=O)O)(CC2)CC3)C(c2cccc(Cl)c2F)C2(C(=O)Nc3cc(Cl)ccc32)C12CCCCC2	> 1000	> 1000	> 1000	> 1000	> 1000	85.1	93.5	68.1	64.7	65.4	56.5	98.2	91.8	67.2	66.1	61	62.8	102	86.5	77.7	viability, T/C [16]: 59.9%; viability, T/C [17]: 68.3%; viability, T/C [18]: 62.4%; viability, T/C [19]: 85.9%; viability, T/C [20]: 92.3%; viability, T/C [21]: 74.2%; viability, T/C [22]: 65.1%; viability, T/C [23]: 69.1%; viability, T/C [24]: 62.4%; viability, T/C [25]: 106%; viability, T/C [26]: 99.1%; viability, T/C [27]: 85.4%; viability, T/C [28]: 65.6%; viability, T/C [29]: 65.5%; viability, T/C [30]: 64.2%
O=C(c1ccc(F)c(F)c1Nc1ccc(I)cc1F)N1CC(O)([C@@H]2CCCCN2)C1 + CCN1C(C(=O)NC23CCC(C(=O)O)(CC2)CC3)C(c2cccc(Cl)c2F)C2(C(=O)Nc3cc(Cl)ccc32)C12CCCCC2	96.2	81.4	83.6	81.6	56.2	90.3	88.7	68.4	49.4	41.6	34.6	99.7	92.9	66.8	45.5	42.9	32.1	94.9	87.8	66.3	viability, T/C [16]: 45.4%; viability, T/C [17]: 43.9%; viability, T/C [18]: 33.2%; viability, T/C [19]: 87.3%; viability, T/C [20]: 86.3%; viability, T/C [21]: 64.2%; viability, T/C [22]: 46.8%; viability, T/C [23]: 40%; viability, T/C [24]: 32%; viability, T/C [25]: 97.4%; viability, T/C [26]: 89.2%; viability, T/C [27]: 61.5%; viability, T/C [28]: 37.6%; viability, T/C [29]: 37%; viability, T/C [30]: 28.8%
